According to patent US20260062705A1, “TREATMENT FOR OVARIAN CANCER WITH OLIGONUCLEOTIDES TARGETING FIBROBLAST ACTIVATION PROTEIN ALPHA” (UNIVERSITY OF FLORIDA RESEARCH FOUNDATION, INCORPORATED, priority 2022, published 2026):
Where a SMILES comes first, the peptide text is derived from it. The star is where a group is joined. Cbz = O=C(OCc1ccccc1)*; CH2F = FC*

Key:
Assay type in all cases: cell-based, human
HEY cells = test: CCK-8 cell viability assay; settings: for effect on cell viability: 100 nM for 4 days, FIG. 4D
Description: (§1) Briefly, cells were cultured in 96-well plates and CCK-8 reagent was added to cells. After 2-h incubation at 37° C., absorbance was measured using a Bio-Rad plate reader at 460 nm. In vitro invasion was assayed using Matrigel invasion chamber available from Cell Biolabs Inc (San Diego, CA) according to manufacturer's protocol. Flow cytometry-based cell apoptosis was determined using Dead Cell Apoptosis Kits with Annexin V (Thermo Fisher, Cat #V13242) according to manufacturer's protocol. Lipid raft fractions were prepared using Minute™ Plasma Membrane-Derived Lipid Raft Isolation Kit (Invent Biotechnologies, Plymouth, MN) according to manufacturer's protocol.

OVCAR8 cells = test: CCK-8 cell viability assay; settings: for effect on cell viability: 100 nM for 4 days, FIG. 4D
Description: as §1

[1] = system: FAP-PRKDC co-localization in HEY cells; test: Confocal immunofluorescence staining of FAP and PRKDC; settings: 5 mM MBC for 1 day, FIG. 6E
Description: (§2) Immunofluorescence staining: Cells were plated on coverslips for overnight and then fixed with 4% paraformaldehyde followed by permeabilization with 1% Triton X-100. Cells were washed three times with 1×PBS (Thermo Fisher, Cat #: 10010049). After brief blocking with 1% BSA, cells were incubated with anti-FAP mAb (Cat #sc-65398, Santa Cruz Biotechnology, Santa Cruz, CA) or anti-PRKDC polyclonal antibody (Cat #ab32566, Abcam) for 1 h and then with secondary antibody (Alexa Fluor® 488 and Alexa Fluor® 568) for another hour. Coverslips were mounted on […] using Permount solution (Cat #: P36961, Thermo Fisher) and cell fluorescence staining was viewed with confocal microscopy (Carl Zeiss Vision, LSM510). To locate lipid rafts, recombinant Cholera toxin subunit B conjugated with Alexa Fluor™ 647 (Cat #C34778, Thermo Fisher) was included during incubation with secondary antibody.
(§3) Both FAP and PRKDC have been reported to be present in the lipid rafts with unknown function (13, 14). We investigated whether FAP-PRKDC interaction occurred in lipid rafts. We first isolated lipid fraction from HEY and OVCAR8 cells followed by western blot analysis to detect FAP and PRKDC. As well characterized lipid raft marker caveolin-1, both FAP and PRKDC were readily seen in lipid raft isolates (FIG. 6C). […]

[2] = system: FAP-PRKDC co-localization in OVCAR8 cells; test: as above; settings: 5 mM MBC for 1 day, FIG. 6E
Description: as §2, §3

Compound | effect on cell viability (HEY cells; HEY cells) | effect on cell viability (OVCAR8 cells; OVCAR8 cells) | further results
COCCn1c2c([n+](Cc3cnccn3)c1C)C(=O)c1ccccc1C2=O [YM155] | significant decrease in cell viability | significant decrease in cell viability | –
CC(C)[C@H](N)C(=O)N1CCC[C@H]1B(O)O [Alabostat, Talabostat] | – | – | effect on survival (HEY cells; HEY cells, 1 mM Batimastat or 1 μM Talabostat alone or in combination, 4 days, FIG. 9): little effect; effect on survival (OVCAR8 cells; OVCAR8 cells, 1 mM Batimastat or 1 μM Talabostat alone or in combination, 4 days, FIG. 9): little effect
CC[C@H](NC(=O)[C@H](C)NC)C(=O)N1C[C@@H](O)C[C@H]1Cc1c(-c2[nH]c3cc(F)ccc3c2C[C@@H]2C[C@H](O)CN2C(=O)[C@H](CC)NC(=O)[C@H](C)NC)[nH]c2cc(F)ccc12 [Birinapant] | much less inhibitory effect | much less inhibitory effect | –
COC(=O)C[C@H](NC(=O)[C@H](C)NC(=O)[C@@H](NC(=O)OCc1ccccc1)C(C)C)C(=O)CF [zVAD] (Cbz-Val-Ala-Asp(OMe)-CH2F) | – | – | effect on FAP shRNA-led cell death (HEY cells; HEY cells transduced with FAP shRNA, 10 μM from one day post-infection, total 4 days, FIG. 2E): blocked anti-FAP shRNA-led cell death; effect on FAP shRNA-led cell death (OVCAR8 cells; OVCAR8 cells transduced with FAP shRNA, 10 μM from one day post-infection, total 4 days, FIG. 2E): blocked anti-FAP shRNA-led cell death
Methyl-beta-cyclodextrin [MBC] | – | – | FAP-PRKDC co-localization after disruption of lipid rafts [1]: undetectable FAP-PRKDC co-localization; FAP-PRKDC co-localization after disruption of lipid rafts [2]: undetectable FAP-PRKDC co-localization
Cc1c(-c2c(-c3ccc(F)o3)sc3ncnc(O[C@H](Cc4ccccc4OCc4ccnn4CC(F)(F)F)C(=O)O)c23)ccc(OCCN2CCN(C)CC2)c1Cl [S63845] | much less inhibitory effect | much less inhibitory effect | –
